Assay results published in PubChem BioAssay AID1963433 (Molecular Pharmacology Branch, DTP, NCI, 2024).

System: 772245-204-R-J1-PDC complex spheroid growth
Assay: Anticancer human tumor 772245-204-R-J1-PDC patient-derived rhabdomyosarcoma cell line growth inhibition [Asc]
Conditions: for IC50: curve of first compound; for viability, T/C: stronger effect = lower value
In short: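 Complex spheroids combining tumor cells with HUVEC endothelial cells and human MSCs, at 37 degrees C, 5% CO2; agents tested alone or combined, half-log dilutions from at or near clinical Cmax, or 10 microM if Cmax unknown.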

[1] = second compound 0.03 µM, first compound 0.0316 µM
[2] = second compound 0.03 µM, first compound 0.1 µM
[3] = second compound 0.03 µM, first compound 0.316 µM
[4] = second compound 0.03 µM, first compound 1 µM
[5] = second compound 0.0949 µM, first compound 0.0316 µM
[6] = second compound 0.0949 µM, first compound 0.1 µM
[7] = second compound 0.0949 µM, first compound 0.316 µM
[8] = second compound 0.0949 µM, first compound 1 µM
[9] = second compound 0.3 µM, first compound 0.0316 µM
[10] = second compound 0.3 µM, first compound 0.1 µM
[11] = second compound 0.3 µM, first compound 0.316 µM
[12] = second compound 0.3 µM, first compound 1 µM
[13] = second compound 0.949 µM, first compound 0.0316 µM
[14] = second compound 0.949 µM, first compound 0.1 µM
[15] = second compound 0.949 µM, first compound 0.316 µM
[16] = second compound 0.949 µM, first compound 1 µM
[17] = second compound 3 µM, first compound 0.0316 µM
[18] = second compound 3 µM, first compound 0.1 µM
[19] = second compound 3 µM, first compound 0.316 µM
[20] = second compound 3 µM, first compound 1 µM
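Note: compound exposure lasted seven days.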
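Throughout, for viability, T/C: 100% = DMSO vehicle control viability.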

For `C#Cc1c(F)ccc2cc(O)cc(-c3ncc4c(N5CC6CCC(C5)N6)nc(OCC56CCCN5CC(F)C6)nc4c3F)c12` (stereo not given) + CCN1C(C(=O)NC23CCC(C(=O)O)(CC2)CC3)C(c2cccc(Cl)c2F)C2(C(=O)Nc3cc(Cl)ccc32)C12CCCCC2, the IC50 (second compound 0.03 µM) was > 10 µM, the IC50 (second compound 0.0949 µM) was > 10 µM and the IC50 (second compound 0.3 µM) was > 10 µM. The IC50 (second compound 0.949 µM) was > 10 µM, the IC50 (second compound 3 µM) was > 10 µM and the viability, T/C [1] was 98.8%. The viability, T/C [2] was 106%, the viability, T/C [3] was 94.8% and the viability, T/C [4] was 95.8%. For the same compound, the viability, T/C (second compound 0.03 µM, first compound 3.16 µM) was 118%, the viability, T/C (second compound 0.03 µM, first compound 10 µM) was 89.5% and the viability, T/C [5] was 98.4%. The viability, T/C [6] was 91.9%, the viability, T/C [7] was 93% and the viability, T/C [8] was 86%. For the same compound, the viability, T/C (second compound 0.0949 µM, first compound 3.16 µM) was 93.5%, the viability, T/C (second compound 0.0949 µM, first compound 10 µM) was 78.4% and the viability, T/C [9] was 108%. The viability, T/C [10] was 99.2%, the viability, T/C [11] was 106% and the viability, T/C [12] was 111%. The viability, T/C (second compound 0.3 µM, first compound 3.16 µM) was 81.2%, the viability, T/C (second compound 0.3 µM, first compound 10 µM) was 80.6% and the viability, T/C [13] was 90%. For the same compound, the viability, T/C [14] was 90.9%, the viability, T/C [15] was 86% and the viability, T/C [16] was 86.9%. It also gave a viability, T/C (second compound 0.949 µM, first compound 3.16 µM) of 91.6%, a viability, T/C (second compound 0.949 µM, first compound 10 µM) of 76.5% and a viability, T/C [17] of 73.1%. For the same compound, the viability, T/C [18] was 79.2%, the viability, T/C [19] was 77.1% and the viability, T/C [20] was 67.8%. For the same compound, the viability, T/C (second compound 3 µM, first compound 3.16 µM) was 67.3% and the viability, T/C (second compound 3 µM, first compound 10 µM) was 54.2%.
`CNC(C)C(=O)NC1CN(S(=O)(=O)c2cccc(S(=O)(=O)N3CCC4CCC(C(=O)NC(c5ccccc5)c5ccccc5)N4C(=O)C(NC(=O)C(C)NC)C3)c2)CCC2CCC(C(=O)NC(c3ccccc3)c3ccccc3)N2C1=O` (stereo not given) + CCN1C(C(=O)NC23CCC(C(=O)O)(CC2)CC3)C(c2cccc(Cl)c2F)C2(C(=O)Nc3cc(Cl)ccc32)C12CCCCC2 was tested, and the IC50 (second compound 0.03 µM) was > 1 µM, the IC50 (second compound 0.0949 µM) was > 1 µM and the IC50 (second compound 0.3 µM) was > 1 µM. For the same compound, the IC50 (second compound 0.949 µM) was > 1 µM, the IC50 (second compound 3 µM) was 0.577 µM and the viability, T/C (second compound 0.03 µM, first compound 0.00316 µM) was 86.2%. For the same compound, the viability, T/C (second compound 0.03 µM, first compound 0.01 µM) was 102%, the viability, T/C [1] was 88% and the viability, T/C [2] was 91.8%. For the same compound, the viability, T/C [3] was 94.9%, the viability, T/C [4] was 86.8% and the viability, T/C (second compound 0.0949 µM, first compound 0.00316 µM) was 94.5%. For the same compound, the viability, T/C (second compound 0.0949 µM, first compound 0.01 µM) was 98.9%, the viability, T/C [5] was 75.3% and the viability, T/C [6] was 89.7%. For the same compound, the viability, T/C [7] was 79.2%, the viability, T/C [8] was 85.3% and the viability, T/C (second compound 0.3 µM, first compound 0.00316 µM) was 74.8%. The viability, T/C (second compound 0.3 µM, first compound 0.01 µM) was 83%, the viability, T/C [9] was 84.6% and the viability, T/C [10] was 68.9%. It also gave a viability, T/C [11] of 70.8%, a viability, T/C [12] of 88.1% and a viability, T/C (second compound 0.949 µM, first compound 0.00316 µM) of 88.2%. For the same compound, the viability, T/C (second compound 0.949 µM, first compound 0.01 µM) was 87.4%, the viability, T/C [13] was 78.8% and the viability, T/C [14] was 75.2%. For the same compound, the viability, T/C [15] was 73%, the viability, T/C [16] was 62.4% and the viability, T/C (second compound 3 µM, first compound 0.00316 µM) was 72.8%. It also gave a viability, T/C (second compound 3 µM, first compound 0.01 µM) of 62.2%, a viability, T/C [17] of 60.2% and a viability, T/C [18] of 56.7%. For the same compound, the viability, T/C [19] was 43.2% and the viability, T/C [20] was 53.2%.
For `Cc1nc(N2CCC3(CC2)COC(C)C3N)c(CO)nc1Sc1ccnc(N)c1Cl` (stereo not given) + CCN1C(C(=O)NC23CCC(C(=O)O)(CC2)CC3)C(c2cccc(Cl)c2F)C2(C(=O)Nc3cc(Cl)ccc32)C12CCCCC2, the IC50 (second compound 0.03 µM) was > 3 µM, the IC50 (second compound 0.0949 µM) was > 3 µM and the IC50 (second compound 0.3 µM) was > 3 µM. For the same compound, the IC50 (second compound 0.949 µM) was > 3 µM, the IC50 (second compound 3 µM) was 2.74 µM and the viability, T/C (second compound 0.03 µM, first compound 0.00949 µM) was 94.9%. For the same compound, the viability, T/C (second compound 0.03 µM, first compound 0.03 µM) was 120%, the viability, T/C (second compound 0.03 µM, first compound 0.0949 µM) was 108% and the viability, T/C (second compound 0.03 µM, first compound 0.3 µM) was 102%. The viability, T/C (second compound 0.03 µM, first compound 0.949 µM) was 76.9%, the viability, T/C (second compound 0.03 µM, first compound 3 µM) was 56.9% and the viability, T/C (second compound 0.0949 µM, first compound 0.00949 µM) was 97.1%. The viability, T/C (second compound 0.0949 µM, first compound 0.03 µM) was 100%, the viability, T/C (second compound 0.0949 µM, first compound 0.0949 µM) was 119% and the viability, T/C (second compound 0.0949 µM, first compound 0.3 µM) was 93.3%. It also gave a viability, T/C (second compound 0.0949 µM, first compound 0.949 µM) of 84.1%, a viability, T/C (second compound 0.0949 µM, first compound 3 µM) of 51% and a viability, T/C (second compound 0.3 µM, first compound 0.00949 µM) of 111%. It also gave a viability, T/C (second compound 0.3 µM, first compound 0.03 µM) of 110%, a viability, T/C (second compound 0.3 µM, first compound 0.0949 µM) of 88.3% and a viability, T/C (second compound 0.3 µM, first compound 0.3 µM) of 85.3%. It also gave a viability, T/C (second compound 0.3 µM, first compound 0.949 µM) of 77.8%, a viability, T/C (second compound 0.3 µM, first compound 3 µM) of 52% and a viability, T/C (second compound 0.949 µM, first compound 0.00949 µM) of 113%. The viability, T/C (second compound 0.949 µM, first compound 0.03 µM) was 109%, the viability, T/C (second compound 0.949 µM, first compound 0.0949 µM) was 109% and the viability, T/C (second compound 0.949 µM, first compound 0.3 µM) was 97.5%. The viability, T/C (second compound 0.949 µM, first compound 0.949 µM) was 75.7%, the viability, T/C (second compound 0.949 µM, first compound 3 µM) was 52% and the viability, T/C (second compound 3 µM, first compound 0.00949 µM) was 75.6%. For the same compound, the viability, T/C (second compound 3 µM, first compound 0.03 µM) was 92.5%, the viability, T/C (second compound 3 µM, first compound 0.0949 µM) was 85.7% and the viability, T/C (second compound 3 µM, first compound 0.3 µM) was 71.9%. For the same compound, the viability, T/C (second compound 3 µM, first compound 0.949 µM) was 62.6% and the viability, T/C (second compound 3 µM, first compound 3 µM) was 48.5%.
